Assay results from patent US9145375B2, “Quinazolinone compounds” (PRANA BIOTECHNOLOGY LIMITED, priority 2008, dated 2015).
Where “and” joins values, the source holds several entries; their conditions need not be identical. Equal values may be shown once. Read-outs that look alike come from different tables or passages of the source.

Key:
[1] = test system: MPTP induced cell death in the SN; test: Parkinson's disease in vivo: MPTP model; parameters: species or system mouse; settings: MPTP mice; for Behaviour Pole Test, % (SSV = 0%) / Behaviour Pole Test, value ± SD: 30 mg/kg; for SN cell counts % of SSV / SN cell counts (cells +/− SD): test drug 30 mg/kg daily by oral gavage, several experiments
Text: Parkinson's Disease In Vivo Technique: MPTP
MPTP (1-methyl 4-phenyl 1,2,3,6-tetrahydropyridine) is a chemical that is related to the opioid analgesic drugs. MPTP causes Parkinsonian side-effects. This occurs when MPTP is metabolized into MPP+, which kills neurons in a part of the brain called the substantia nigra. MPP+ interferes with mitochondria metabolism which leads to cell death and causes the build up of free radicals, toxic molecules that contribute further to cell destruction. MPTP has abilities to effect neuronal death in dopaminergic cells. Such effects lead to gross depletion of dopaminergic neurons which has severe implications on cortical control of complex movements.
General Experimental Design
Determining that MPTP Causes Continued Cell Death
Control (non tg) and transgenic mice receive five intraperitoneal injections of MPTP-HCl (23 gauge needle, 20 mg\kg of free base; Sigma, St. Louis, Mo., USA) dissolved in sterile 0.9% saline at 2-h interval in 1 day. Control animals receive five intraperitoneal injections of 0.9% saline. […] 20 C57BL6, 10 control and 10 hA53T tg are used to establish the precise dose of toxin at 2 weeks. Animals are allowed to recover for 1 week, 2 weeks, 1 month, 12, months and 18 months. The animals are killed and the brains removed for histological (stereological) and biochemical analysis.
Determining Whether Test Drug Reduces MPTP Induced Cell Death
Animals are treated as described above. They are treated with test drug 2 days after MPTP injection until death. Test drug is given by oral gavage at a daily dosage of 30 mg/kg. The time of killing the animals is dependant on the analysis of Experiment 1, normally one month or less.
Drugs are administered by oral gavage, at a daily dosage of 30 mg/kg.
Mice are assessed at prior to killing the mice for histological analysis.
Motor coordination and strength are assessed using the rotarod. The rotarod consists of a plastic rotating rod of 3.6 cm axial diameter partitioned by metal disks into five sections to allow the testing of multiple mice simultaneously. Mice are trained on two sessions where the rotation speed is ramped from 0-30 rpm over 5 min and one training session where rotation is a constant 16 rpm for 5 min. Within two days of training, animals are formally assessed on the rotarod rotating at 16 rpm for a maximum of 3 min: the time to fall on this single test is the recorded data point.
The pole is a 700 mm long, 5 mm diameter, wooden rod. The rod is supported at its base and held vertical. The total walking distance for the mice is 550 mm. The time taken for the mouse to descend the pole is measured with a maximum time of 120 s. If a mouse falls, the time is scored as 120 s.

[2] = Metabolism in hepatocytes (predicted EH), human; format: in vitro ADME
[3] = Metabolism in hepatocytes (predicted EH), dog; format: in vitro ADME
PK Studies in the Rat = format: in vivo; settings: for Cmax / Tmax / half-life / AUC(0-t): plasma; for AUC(0-t): read-out: AUC0-24 h (converted)
Description: Assay 5. Pharmacokinetic Profile
The pharmacokinetic profile of test compounds is determined by the following assay: • Intravenous infusion of test compound; 2 mg/Kg in a suitable vehicle is […]; […] up to 24 hours. • Plasma concentrations of test compound are determined by suitable analytical method.
[formula] [formula] [formula] • CLtotal=total plasma clearance after IV administration • Vdβ=volume of distribution during the elimination phase after IV administration • BA=oral bioavailability • AUCIV=area under the plasma concentration versus time profile from time zero to infinity after IV administration • AUCoral=area under the plasma concentration versus time profile from time zero to infinity after oral administration • β=terminal elimination rate constant after IV administration Assay 6. Blood Brain Barrier Penetration

CYP2C19 = target: T1, CYP2C19 (Homo sapiens, UniProt P33261); test: CYP450 inhibition, specific substrate approach in human liver microsomes: CYP2C19; format: in vitro ADME
T1 construct: using a specific substrate approach in human liver microsomes; from tissue; host or cells: human liver microsomes
Description: CYP450 Isoform Inhibition Using a Specific Substrate Approach
The present study is a “Tier 2” screen to assess potential enzyme inhibition at a test compound concentration of 20 μM using a specific substrate approach in human liver microsomes.
The substrate specific enzyme inhibition study relies on the formation of a metabolite that is mediated by a specific CYP450 isoform using human liver microsomes. In the current study, the following reactions were monitored to assess interactions with specific CYP450 isoforms. A known inhibitor of each isoform was included in each assay as a positive control. The following IC50 values have been reported in the literature using equivalent assay conditions for each CYP450 isoform:
The reaction was initiated by the addition of an NADPH-regenerating system and was quenched by the addition of acetonitrile prior to determining the concentration (and apparent rate of formation) of the specific metabolite by LC/MS.
The IC50 was deemed to be the concentration at which there was a 50% reduction in the amount of metabolite formed, relative to the maximal extent of formation.

Fe-DA = test: H2O2 assay, Fe-DA (% cf. Fe 0.4 μM/DA 50 μM); format: biochemical; settings: Fe 0.4 μM/DA 50 μM
Description: This fluoresence assay evaluates the ability of a test compound to inhibit the generation of hydrogen peroxide (H2O2) by iron in the presence of a reducing substrate such as ascorbic acid. In the assay, iron in the form of FeCl3 or copper is allowed to react with ascorbic acid by incubating for 1 hr at 37° C. in the presence of the fluorescing compound DCF and horseradish peroxidase. H2O2 generated by the system is assessed by measuring the specific fluorescence profile at the excitation and emission wavelengths of 485 and 530 nm respectively, in the presence of increasing concentrations of test compound. Test compounds are ranked according to their capacity to inhibit H2O2 generated by the system where lower values reflect greater ability to inhibit H2O2 production.

T1 sequence (P33261 whole entry): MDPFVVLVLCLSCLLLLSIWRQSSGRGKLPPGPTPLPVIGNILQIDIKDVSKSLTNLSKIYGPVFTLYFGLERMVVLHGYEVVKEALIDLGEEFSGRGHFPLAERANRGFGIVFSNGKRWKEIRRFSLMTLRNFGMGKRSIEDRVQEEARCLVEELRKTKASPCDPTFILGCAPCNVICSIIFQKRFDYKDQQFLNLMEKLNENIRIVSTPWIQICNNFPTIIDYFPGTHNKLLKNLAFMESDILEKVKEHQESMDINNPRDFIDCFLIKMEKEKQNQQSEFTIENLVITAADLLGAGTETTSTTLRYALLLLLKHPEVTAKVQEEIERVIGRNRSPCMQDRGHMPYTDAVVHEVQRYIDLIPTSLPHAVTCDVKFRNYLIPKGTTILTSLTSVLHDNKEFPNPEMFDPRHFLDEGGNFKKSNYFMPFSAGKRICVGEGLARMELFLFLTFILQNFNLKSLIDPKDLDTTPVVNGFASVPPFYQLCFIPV

SMILES | Metabolism (Predicted EH), Hepatocytes: Human [2] | Metabolism (Predicted EH), Hepatocytes: Dog [3] | IC50 (CYP2C19) [µM] | % dose in urine (PK Studies in the Rat; oral 20 mg/Kg) [% dose] | l24 (PK Studies in the Rat; oral 20 mg/Kg) | Cmax (PK Studies in the Rat; oral 20 mg/Kg) [µM] | Tmax (PK Studies in the Rat; oral 20 mg/Kg) [h] | half-life (PK Studies in the Rat; oral 20 mg/Kg) [h] | AUC(0-t) (PK Studies in the Rat; oral 20 mg/Kg) [µM·h] | Behaviour Pole Test, % (SSV = 0%) [1] [%] | Behaviour Pole Test, value ± SD [1] | SN cell counts % of SSV [1] | SN cell counts (cells +/− SD) [1] | Fe-DA % cf. Fe 0.4 μM/DA 50 μM (Fe-DA) [%] | other results
CCN(CC)Cc1nc2c(O)c(Cl)cc(Cl)c2c(=O)n1CC1CC1 [Compound F4385] | 0.55 | Dog = 0.37 | > 30 | 0.05 | l24 = 0.5-1.5 u uM | 7.3 | 0.5 | 14.7 | 52.1 | – | – | 31.49% | 3690.00 ± 919.10 cells | 86 | –
C#CCN(C)Cc1nc2c(O)c(Cl)cc(Cl)c2c(=O)n1CC1CC1 [Compound F4387] | – | – | – | – | – | – | – | – | – | – | – | – | – | 77 | –
Br.CCn1c(CNC)nc2c(O)c(Cl)cc(Cl)c2c1=O [Compound F4486] | – | – | – | – | – | – | – | – | – | 38.46 | (1.81 ± 0.80) | 24.11% | 2647.97 ± 814.44 cells | 56 | –
CCNCc1nc2c(O)c(Cl)cc(Cl)c2c(=O)n1CC [Compound F4495] | 0.22 | Dog = 0.56 | > 30 | 0.18 | l24 = 0.05-0.3 uM | 56.7 | 0.5 | 4.1 | 87 | 18.32 | (2.26 ± 0.82) | 45.45% and 50.33% | – | 45 | –

Second part, led by results:

Metabolism (Predicted EH), Hepatocytes: Human [2] | Metabolism (Predicted EH), Hepatocytes: Dog [3] | IC50 (CYP2C19) [µM] | % dose in urine (PK Studies in the Rat; oral 20 mg/Kg) [% dose] | l24 (PK Studies in the Rat; oral 20 mg/Kg) | Cmax (PK Studies in the Rat; oral 20 mg/Kg) [µM] | Tmax (PK Studies in the Rat; oral 20 mg/Kg) [h] | half-life (PK Studies in the Rat; oral 20 mg/Kg) [h] | AUC(0-t) (PK Studies in the Rat; oral 20 mg/Kg) [µM·h] | SMILES | Behaviour Pole Test, % (SSV = 0%) [1] [%] | Behaviour Pole Test, value ± SD [1] | SN cell counts % of SSV [1] | SN cell counts (cells +/− SD) [1] | Fe-DA % cf. Fe 0.4 μM/DA 50 μM (Fe-DA) [%] | other results
0.20 | Dog = 0.56 | – | – | – | – | – | – | – | CNCc1nc2c(O)c(Cl)cc(Cl)c2c(=O)n1C [Compound F4161] | 2.55 | (2.85 ± 1.63) | 28.05% | (2781.33 ± 382.88) cells | – | Cmax (PK Studies in the Rat; route and dose not given): 6.7 µM; Tmax (PK Studies in the Rat; route and dose not given): 0.25 h; half-life (PK Studies in the Rat; route and dose not given): 6.7 h; AUC(0-t) (PK Studies in the Rat; route and dose not given): 14.1 µM·h; % dose in urine (PK Studies in the Rat; route and dose not given): urine = 0.1%; l24 (PK Studies in the Rat; route and dose not given): l24 = 0.045-0.15 μM
0.44 | Dog = 0.39 | > 30 | – | – | – | – | – | – | CN(C)Cc1nc2c(O)c(Cl)cc(Cl)c2c(=O)n1CC1CC1 [Compound F4267] | – | – | 53.94% and 53.77% | 3331.96 ± 262.97 cells and 4315.11 ± 310.21 cells | – | l24 (PK Studies in the Rat; oral 30 mg/Kg): l24 = 0.25-0.5 uM; half-life (PK Studies in the Rat; oral 30 mg/Kg): 4.9 h
0.28 | Dog = 0.49 | > 20 | – | – | – | – | – | – | CCn1c(CN(C)C)nc2c(O)c(Cl)cc(Cl)c2c1=O.Cl [Compound F4268] | −25.38 | (3.66 ± 1.87) | 40.35% and 74.83% and 64.00% | 3797.33 ± 562.78 cells and 3065 ± 387 cells and 3163.87 ± 611.27 cells | – | % dose in urine (PK Studies in the Rat; oral 30 mg/Kg): 0.1% dose; Rel. Exposure (PK Studies in the Rat; oral 30 mg/Kg): 51.9%; l24 (PK Studies in the Rat; oral 30 mg/Kg): l24 = 0.02-0.05 uM; Cmax (PK Studies in the Rat; oral 30 mg/Kg): 10 µM; Tmax (PK Studies in the Rat; oral 30 mg/Kg): 0.333 h; half-life (PK Studies in the Rat; oral 30 mg/Kg): 4.3 h
0.38 | Dog = 0.54 | > 30 | 0.1 | l24 = 0.01-0.03 uM | 3.3 | 0.375 | 5.6 | 5.5 | CN(C)Cc1nc2c(O)c(Cl)cc(Cl)c2c(=O)n1C [Compound F4269, 5,7-Dichloro-2-(dimethylamino)methyl-8-hydroxy-3-methylquinazolin-4(3H)-one] | – | – | 26.76% | 3557.33 ± 556.55 cells | – | –
0.43 | Dog = 0.66 | > 30 | 0.19 | l24= 0.02-0.1 uM | 7.61 | 0.75 | 6.1 | 17.8 | Br.CCNCc1nc2c(O)c(Cl)cc(Cl)c2c(=O)n1C [Compound F4496] | 38.61 | (1.79 ± 1.13) | – | – | 45 | –
